Data reported in US10300048B2, “Thiazolidinones as cellular anandamide uptake inhibitors and their use in the treatment of psychiatric or neurological disorders and inflammation, in particular neuroinflammation” (UNIVERSITAT BERN, priority 2014, dated 2019).
Like-named read-outs stand apart in the source and are kept apart here.

What was measured:
[1] = system: TNF-alpha and IL-1beta in brain; assay: Endotoxemia mouse model (LPS), brain cytokines; format: in vivo, mice; settings: 5 mg/kg i.p. 30 min prior to LPS 250 μg/100 g i.p., vs. vehicle, P<0.05
Description: Male BALB/c mice were injected i.p. with test compounds (5 mg/kg) or vehicle (DMSO, 20 μL) 30 min prior to LPS administration (250 μg/100 g body weight) in 50 μL saline solution. The administrations were conducted between 9:00 and 10:00 am. 30 min prior to scarification, 20 units (200 μL) of Inhepar® were injected subcutaneously. […] The brain was immediately removed on ice and stored in liquid nitrogen. […] The concentrations of the cytokines in brain and plasma were measured using commercially available Luminex MagPix cytokines assay (BioRad) specific for mice, according to the manufacturer's instructions. The acquisition of the fluorescent signal was achieved by a charged-coupled device (CCD) imager. The concentration of the analytes was determined by MAGPIX xPONENT. The assays were run in triplicates and the concentrations were expressed in pg/mL based on a standard curve.
(§1) Statistical analysis and IC50 values were determined using GraphPad® Prism 5.0 (GraphPad® Software, San Diego, Calif., US). Inhibition curves were obtained by non-linear regression using the built-in log(inhibitor) vs. response-variable slope (four parameters) function. Results were calculated as % of vehicle control of the corresponding fraction (cells, aqueous phase) if not mentioned else. In vivo results are shown in absolute values and were analyzed by a one-way ANOVA following a Tukey's multiple comparison test or student's t-test. If not indicated else the results were compared vs. vehicle (CTRL). *** P<0.001, ** P<0.01, * P<0.05, ns=not significant P>0.05.

[2] = system: AEA cellular uptake, U937 cells; assay: [3H]-AEA cellular uptake inhibition in U937 cells; format: cell-based; settings: Homo sapiens, U-937, U937 cells
Description: [^3H]-AEA Cellular Uptake
Screening for AEA cellular uptake inhibition was performed in a semi-automated procedure: Pipetting and washing steps were performed by a Biomek3000 laboratory workstation. First, required amounts of U937 cells were centrifuged at 100×g for 5 min and resuspended in RPMI (37° C.) to a final concentration of 2×10^6 cells/mL. Then, 250 μL of cell suspension (0.5×10^6 cells per sample) were transferred into AquaSil™ silanized glass vials (Chromacol 1.1-MTV) in 96-well format. After addition of 5 μL vehicle (DMSO) or compounds the cells were incubated at 37° C. for 15 min. As positive controls OMDM-2 and UCM707 were used at 10 μM in each run. The ETI-T compounds were measured at up to 7 concentrations in triplicates from 100 pM-100 μM. After pre-incubation, a mixture of 0.5 nM[ethanolamine-1-^3H]-AEA, (60 Ci/mmol) and 99.5 nM of cold AEA (final 100 nM) was added and samples were incubated at 37° C. for another 15 min. The reaction was stopped by rapid filtration over UniFilter-96 GF/C filters (PerkinElmer) pre-soaked with PBS 0.25% BSA. Cells were washed three times with 100 μL ice-cold PBS buffer containing 1% fatty acid free BSA. After drying, 45 μL MicroScint 20 scintillation cocktail (PerkinElmer, Waltham, Mass., US) was added to the wells and the plate was sealed. Radioactivity was measured by liquid scintillation counting on a PerkinElmer Wallac Trilux MicroBeta 1450 during 2 min. Non-specific binding of [^3H]AEA (100 nM) to the glass vials was never higher than 10%. IC50 values were calculated by GraphPad® by non-linear regression using the built-in log(inhibitor) vs. response-variable slope (four parameters) function.
as §1

[3] = Table 1, 100 nM AEA, read-out: AEA uptake inhibition IC50
[4] = Table 4, read-out: AEA uptake IC50

| IC50 [2, 3] | IC50 [2, 4] | SMILES | IL-1beta level in total brain ([1]; after 2 hours) | TNF-alpha level in total brain ([1]; after 2 hours) | IL-1beta level in total brain ([1]; after 8 hours) | TNF-alpha level in total brain ([1]; after 8 hours) |
| --- | --- | --- | --- | --- | --- | --- |
| 148 nM | 148 nM | COc1ccc(/C=C2\S/C(=N\c3ccc(OC)cc3)N(c3ccc(OC)cc3)C2=O)cc1 [Compound 5] | Decrease | Decrease | Decrease | Decrease |
| 990 nM | 990 nM | O=C1/C(=C/c2cc(Cl)c(O)c(Cl)c2)S/C(=N\c2ccccc2)N1Cc1ccco1 [Compound 23] | – | – | – | – |
| 225 nM | 225 nM | COc1cc(/C=C2\S/C(=N\c3ccccc3)N(c3ccccc3)C2=O)ccc1O [Compound 6] | – | – | – | – |
